In PubChem BioAssay (NCI):
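Following 48 hours of exposure in 96-well plates, responses at five concentrations were used to interpolate endpoints linearly. TGI denotes the concentration required for complete inhibition of growth.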 *1 amine or outer side, *2 acyl side, *3 side chain or, on linkers, in order; H or OH if unused. Where a SMILES comes first, the peptide text is derived from it. Bridges are numbered along the chain shown (N, C = ends). Roman numbers before positions name the chains, in order. [ ]: non-standard residue; d: D form. Actinocin(9to1) = Cc1c2oc3c(C)ccc(C(=O)[*:1])c3nc-2c(C(=O)[*:2])c(N)c1=O; Hyp = O=C(O)[CH]1C[CH](O)CN1; NMeV = CN[CH](C(=O)O)C(C)C; Sar = CNCC(=O)O

Columns and labels:
Experiment in all cases: NCI-60 cell line screen, 48 h
[1] = test system: LOX IMVI melanoma
[2] = test system: SF-295 CNS
[3] = test system: NCI/ADR-RES ovarian
[4] = test system: SN12C renal

Structure (SMILES) | TGI [1] [µM] | TGI [2] [µM] | TGI [3] [µM] | TGI [4] [µM]
COC1=C(Cl)C(=O)c2c(O)ccc(O)c2C1=O | 3.63 | 20.3 | 2.32 | 2.74
O=C(C/C(=N/O)C(F)(F)F)c1cccs1 | > 100 | > 100 | > 100 | > 100
CN(C)CCOc1ccc(-c2c(Oc3ccccc3)c(=O)oc3ccccc23)cc1 | 25.9 | 17.2 | 25 | 26.9
CCN(CC)c1ccc(/C=C2\CCc3ccc([N+](=O)[O-])cc3C2=O)cc1 | > 100 | 7.55 | > 30.7 | > 100
O=c1c2cnccc2cc2c3ccccc3ccn12 | > 100 | > 100 | > 100 | > 100
CO/N=C(\C([O-])=N\[n+]1cnn(CC(=O)OC(C)(C)C)c1)c1csc(NC(c2ccccc2)(c2ccccc2)c2ccccc2)n1 | > 10 | > 10 | > 10 | > 10
CCOC1NC(=O)Oc2cc3ccccc3cc21 (stereo not given) | > 100 | > 100 | > 100 | > 100
Cc1cc(Nc2ccc(NS(C)(=O)=O)cc2)c2c(ccc3nccc32)[nH]1 | 48.4 | 60.5 | > 100 | 38.9
COC(=O)c1ccccc1/C=C1\Cc2ccc3c(c2C1=O)CCCC3 | > 100 | > 100 | > 100 | > 100
CCN(CC)CC1CN=C(N)O1 (stereo not given) | > 100 | > 100 | > 100 | > 100
O=C(OC1CN2CCC1CC2)N(c1ccccc1)c1ccccc1 (stereo not given) | > 100 | > 100 | > 100 | > 100
CC(=O)O[C@H]1C[C@@H](OC(C)=O)[C@@](C)(O)[C@@H]2[C@@H](OC(C)=O)[C@@]3(O)[C@H](/C=C(/CO)[C@H]4O[C@H]4[C@@H](OC(C)=O)[C@@]12C)OC(=O)[C@@H]3C | > 25 | 16.8 | > 25 | > 25
Cc1ccc(-c2cc[n+]3c(n2)oc2ccccc23)cc1 | > 100 | > 100 | > 100 | > 100
COc1cc(Cc2cnc(N)nc2N)cc(OC)c1OCCCNc1ccc([N+](=O)[O-])cc1 |  |  | 60 | 41.4
Cc1cc(S(=O)(=O)Nc2nncn2-c2ccc(Cl)cc2)c(S)cc1Cl | > 10 | > 10 | > 10 | > 10
CC1(C)C2CCC1C(=O)[C@@]1(C=CC(=O)CC1)C2 (stereo not given in full) | > 100 | > 100 | > 100 | > 100
C=CCOC(=O)N1c2ccc(O)cc2[C@@]23O[C@@]24[C@@H]1C#C/C=C\C#C[C@]3(O)C(OC)(OC)C[C@@H]4C |  | > 100 | > 100 | 61.6
O=[N+]([O-])c1cc(F)ccc1S(=O)(=O)c1ccccc1 | > 10 | > 10 | > 10 | > 10
CC(C)(C)NC(=O)/C(=C\Sc1ccccc1)c1ccccc1 | > 79.4 | > 100 | > 100 | > 100
Cn1c2ccccc2c2cc(N3CCCC3)c3c(c21)C(=O)N(c1ccccc1)C3=O | > 100 | > 100 | > 100 | > 100
C=C(C)[C@H]1C2=CC(C)=C(O2)[C@@H](O)[C@H](C(=C)C)CCC2=C[C@H]1OC2=O | > 100 | > 100 | > 100 | > 100
Cc1c(Cl)cccc1N=NC(=O)NNc1cccc(Cl)c1C | 35.7 |  |  | 32.4
O=C(CN1CCCCC1)Nc1ccc2c(c1)C1Oc3ccccc3CC1CO2 (stereo not given) | 30 | 36.4 | 88.3 | > 100
CCN(CC)CCn1c(=O)c2c(C)c3oc4ccccc4oc3c(C)c2c1=O | > 100 | > 100 | > 100 | > 100
Cc1cc2n[n+]3[n-]cc(-c4ccccc4)n3c2cc1[N+](=O)[O-] | > 100 | > 100 |  | 
COC(=O)C1=C(C(=O)OC)C(N(C)C)C(C(=O)OC)=C(C(=O)OC)S1 | > 100 | > 100 | > 100 | > 100

Structure (SMILES) | TGI [1] [µM] | TGI [2] [µM] | TGI [3] [µM] | TGI [4] [µM]
O=C(N/N=C\c1cccc2ccccc12)Nc1cccc2ccccc12 | > 100 |  | > 100 | > 100
CC(=O)O[C@H]1C(=O)[C@@]2(C)[C@H]([C@H](OC(=O)c3ccccc3)[C@]3(O)C[C@H](OC(=O)[C@H](O)[C@@H](NC(=O)c4ccccc4)c4cccc(N(C)C)c4)C(C)=C1C3(C)C)[C@]1(OC(C)=O)CO[C@@H]1C[C@@H]2O | > 75 | 1.14 | > 62.5 | > 75
CCOC(=O)/C=C(\C(=O)OCC)n1cc(Cl)c(=O)n(CC(=O)OCC)c1=O | 11.2 | > 61.1 | > 93.8 | 28.8
CCOC(=O)[C@@]1(C)CC(O)C(=O)N1C (stereo not given in full) | > 100 | > 100 | > 100 | > 100
O=c1[nH]nc(Nc2ccccc2)c2nnn(C3CCCCC3)c12 | > 100 | > 100 | > 100 | > 100
Cc1c2oc3c(C)ccc(C(=O)NC4C(=O)NC(C(C)C)C(=O)N5CC(O)CC5C(=O)N(C)CC(=O)N(C)C(C(C)C)C(=O)OC4C)c3nc-2c(C(=O)NC2C(=O)NC(C(C)C)C(=O)N3CC(O)CC3C(=O)N(C)CC(=O)N(C)C(C(C)C)C(=O)OC2C)c(N)c1=O (stereo not given) (I: TV[Hyp][Sar][NMeV] / II: TV[Hyp][Sar][NMeV]; ester I:1-I:C, II:1-II:C; linker I:N-II:N via Actinocin(9to1); configuration not given here) | > 1 | > 1 | > 1 | > 1
N#Cc1cc(Sc2ccc(N)c(C#N)c2)ccc1N | 51.7 | > 100 | 35.3 | > 100
O=C1CSC(c2ccc([N+](=O)[O-])cc2)N1c1ccc(-c2ccc(-n3c(-c4ccccc4)nc4ccccc4c3=O)cc2)cc1 (stereo not given) | > 100 | > 100 | > 100 | > 100
CCSc1nc(=S)n(-c2ccccc2)c(C)c1C(C)=O | > 100 | > 100 | > 100 | > 100
c1ccc(Nc2nn3c(CCCCCCCCc4nnc5sc(Nc6ccccc6)nn45)nnc3s2)cc1 | > 100 | 71.8 | > 100 | > 100
CCCCCCCCCCCCCCCCCCNC(=S)/N=C/c1c(O)c2ccccc2[nH]c1=O | 32.2 | 47.9 | 35.1 | 41
COC(=O)c1c(C)cccc1C1CN=NC12Cc1cc(C)cc(C)c1C2=O (stereo not given) | 41.5 | > 100 | > 100 | > 100
C=CC(=O)N1C/C(=C\c2ccc([N+](=O)[O-])cc2)C(=O)/C(=C/c2ccc([N+](=O)[O-])cc2)C1 | 0.18 | 0.603 | 4.12 | 0.772
COC(=O)c1c2c(cc3c1CC1(Cc4cc5c(c(C(C)=O)c4C1)CCCC5)C3)CCCC2 (stereo not given) | > 100 | > 100 | > 100 | > 100
CCCCc1ccc(Nc2nc(Cl)c3c(ncn3C3CC(Oc4ccc(C)cc4)C(COc4ccc(C)cc4)O3)n2)cc1 (stereo not given) | > 100 | > 100 | > 100 | > 100
O=[N+]([O-])/C=C(\CS(=O)(=O)c1ccccc1)c1ccc2c(c1)OCO2 | > 100 | > 100 | 49.2 | > 100
CC1SC2(CCCCC2)N(NC(=O)CSc2nc3ccc(Cl)cc3c(=O)n2-c2ccccc2)C1=O (stereo not given) | 37.4 | 36.8 | 50.2 | 32.5
C/C=C(\C)C(=O)O[C@@H]1CC(C)(C)CC2C3=CCC4[C@]56CC[C@](O)(OC5)C(C)(C)C6CC[C@@]4(C)C3(C)CC[C@]21C(=O)O (stereo not given in full) | > 100 | > 100 | > 100 | > 100
COc1ccc2c(c1)NC1(CCN(CCCC(=O)c3ccc(F)cc3)CC1)N=N2 | 35.3 | 46.3 | > 100 | 64.4
COc1c(Br)cc2ccccc2c1-c1c(OC)c(Br)cc2ccccc12 | > 100 | > 100 | > 100 | 
NCCCNOCCCN |  | > 100 | > 100 | > 100
Cc1nc2c(cc1OCc1ccccc1)C(=O)C1=C(C2=O)C2OC(=O)CC2OC1(C)C (stereo not given) | 0.475 |  | 28.9 | 0.443
Cc1nc2ccc(F)cc2c(Cl)c1CCCl | 82.8 | > 100 | > 100 | 
Cc1ccc(S(=O)(=O)N/N=C2\CC3CC4CCC2C4C3)cc1 (stereo not given) | > 100 | > 100 |  | > 100
Nn1c(=O)[nH]c2ncn(Cc3ccccc3)c2c1=O |  | > 100 | > 100 | > 100
